Data published in ChEMBL document CHEMBL1132621, “Synthesis, structure-activity relationships, and in vivo evaluations of substituted di-tert-butylphenols as a novel class of potent, selective, and orally active cyclooxygenase-2 inhibitors. 1. Thiazolone and oxazolone series” (J Med Chem, 1999).

Experiments:
[1] = biological target: T1, Prostaglandin G/H synthase 2 (Homo sapiens, UniProt P35354); test: IC50 against recombinant human Prostaglandin G/H synthase 2
T1 sequence (P35354 whole entry): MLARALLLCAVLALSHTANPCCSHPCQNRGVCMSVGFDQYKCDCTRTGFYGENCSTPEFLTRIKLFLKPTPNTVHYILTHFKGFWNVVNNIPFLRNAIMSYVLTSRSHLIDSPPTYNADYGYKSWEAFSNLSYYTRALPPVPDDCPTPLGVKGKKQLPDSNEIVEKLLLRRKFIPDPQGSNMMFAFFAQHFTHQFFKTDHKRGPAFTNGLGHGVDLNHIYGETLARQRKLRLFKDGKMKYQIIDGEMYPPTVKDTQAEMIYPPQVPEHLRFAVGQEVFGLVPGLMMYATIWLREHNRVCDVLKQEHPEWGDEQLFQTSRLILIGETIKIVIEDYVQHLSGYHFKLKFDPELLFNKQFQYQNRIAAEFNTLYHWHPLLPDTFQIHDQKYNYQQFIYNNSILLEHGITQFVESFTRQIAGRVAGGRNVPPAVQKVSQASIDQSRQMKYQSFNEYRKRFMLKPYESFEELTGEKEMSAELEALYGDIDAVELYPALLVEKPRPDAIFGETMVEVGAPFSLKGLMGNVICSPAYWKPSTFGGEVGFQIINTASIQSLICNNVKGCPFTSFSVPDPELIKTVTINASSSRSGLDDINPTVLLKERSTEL

[2] = biological target: T2, Prostaglandin G/H synthase 2 (Mus musculus, UniProt Q05769)
T2 sequence (Q05769 whole entry): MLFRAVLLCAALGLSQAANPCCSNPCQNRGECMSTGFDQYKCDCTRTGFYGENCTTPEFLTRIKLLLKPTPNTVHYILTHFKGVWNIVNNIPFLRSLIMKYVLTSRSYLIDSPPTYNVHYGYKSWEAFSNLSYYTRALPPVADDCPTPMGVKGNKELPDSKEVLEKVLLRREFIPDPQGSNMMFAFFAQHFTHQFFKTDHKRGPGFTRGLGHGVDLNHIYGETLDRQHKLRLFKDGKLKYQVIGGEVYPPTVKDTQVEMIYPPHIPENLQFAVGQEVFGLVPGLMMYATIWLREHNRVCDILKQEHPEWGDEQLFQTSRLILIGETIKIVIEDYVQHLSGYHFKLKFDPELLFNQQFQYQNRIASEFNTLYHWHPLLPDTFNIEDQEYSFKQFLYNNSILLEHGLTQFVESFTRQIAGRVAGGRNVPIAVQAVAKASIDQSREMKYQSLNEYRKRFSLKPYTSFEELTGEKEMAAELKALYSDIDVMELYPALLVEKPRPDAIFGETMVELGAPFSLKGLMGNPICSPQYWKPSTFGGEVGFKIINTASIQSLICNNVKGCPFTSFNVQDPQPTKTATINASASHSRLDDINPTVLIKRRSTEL
Description: IC50 value was determined against Prostaglandin G/H synthase 2 of J7744A.1 cell lines.

[3] = biological target: T3, Prostaglandin G/H synthase 1 (Homo sapiens, UniProt P23219); test: (§1) IC50 against Prostaglandin G/H synthase 1 from human platelet rich plasma
[4] = biological target: T4, Prostaglandin G/H synthase 1 (Ovis aries, UniProt P05979)
T4 sequence (P05979 whole entry): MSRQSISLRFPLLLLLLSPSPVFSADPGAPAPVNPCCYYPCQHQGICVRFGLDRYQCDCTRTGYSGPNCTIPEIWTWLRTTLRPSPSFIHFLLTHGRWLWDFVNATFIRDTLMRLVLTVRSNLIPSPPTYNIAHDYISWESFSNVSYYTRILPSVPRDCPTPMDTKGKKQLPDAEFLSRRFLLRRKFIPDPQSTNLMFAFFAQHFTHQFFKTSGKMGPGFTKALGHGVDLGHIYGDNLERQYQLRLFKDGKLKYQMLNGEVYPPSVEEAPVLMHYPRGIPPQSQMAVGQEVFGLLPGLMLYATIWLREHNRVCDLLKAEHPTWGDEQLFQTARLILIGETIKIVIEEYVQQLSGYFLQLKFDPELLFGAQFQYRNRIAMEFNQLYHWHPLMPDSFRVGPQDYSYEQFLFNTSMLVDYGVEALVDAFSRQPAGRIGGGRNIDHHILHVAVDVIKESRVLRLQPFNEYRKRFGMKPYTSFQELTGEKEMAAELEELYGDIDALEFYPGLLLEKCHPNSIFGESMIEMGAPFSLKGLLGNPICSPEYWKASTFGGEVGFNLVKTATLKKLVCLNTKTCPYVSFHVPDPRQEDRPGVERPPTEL
Description: IC50 against ovine Prostaglandin G/H synthase 1

[5] = biological target: T3, Prostaglandin G/H synthase 1; test: as §1; format: cell-free
[6] = biological target: T1, Prostaglandin G/H synthase 2; test: IC50 value against recombinant human Prostaglandin G/H synthase 2; not active
Rattus norvegicus [7] = organism: Rattus norvegicus; test: Percentage inhibition of the prostaglandin synthesis was measured in rats.; format: functional
Mus musculus = organism: Mus musculus; test: ED50 measured by hyperalgesia assay; format: functional
Rattus norvegicus [8] = organism: Rattus norvegicus; test: Lesion frequency measured in rats; format: functional
Rattus norvegicus [9] = organism: Rattus norvegicus; test: ED50 measured by CFE assay; format: functional
Rattus norvegicus [10] = organism: Rattus norvegicus; test: Percentage of gastric damage was measured in rats.; format: functional, Stomach
[11] = biological target: T3, Prostaglandin G/H synthase 1; test: IC50 value was determined against Prostaglandin G/H synthase 1 of human platelet rich plasma; Not active
[12] = biological target: T5, Prostaglandin G/H synthase 1 (Ovis aries) (UniProt P05979); test: IC50 value against ovine Prostaglandin G/H synthase 1; Not active; conditions: concentration not given here
T5 sequence (whole entry): T4 sequence (P05979 whole entry)

[13] = biological target: T6, Prostaglandin G/H synthase 2 (Homo sapiens) (UniProt P35354); test: IC50 value against recombinant human Prostaglandin G/H synthase 2 at 10 uM
T6 sequence (whole entry): T1 sequence (P35354 whole entry)

[14] = biological target: T5, Prostaglandin G/H synthase 1 (Ovis aries); test: IC50 value against oCOX-1 at 10 uM; Not active
[15] = biological target: T5, Prostaglandin G/H synthase 1 (Ovis aries); test: IC50 value against oCOX-1 at 10 uM
[16] = biological target: T5, Prostaglandin G/H synthase 1 (Ovis aries); test: IC50 value against ovine Prostaglandin G/H synthase 1 at 10 uM

T3 sequence (P23219 whole entry): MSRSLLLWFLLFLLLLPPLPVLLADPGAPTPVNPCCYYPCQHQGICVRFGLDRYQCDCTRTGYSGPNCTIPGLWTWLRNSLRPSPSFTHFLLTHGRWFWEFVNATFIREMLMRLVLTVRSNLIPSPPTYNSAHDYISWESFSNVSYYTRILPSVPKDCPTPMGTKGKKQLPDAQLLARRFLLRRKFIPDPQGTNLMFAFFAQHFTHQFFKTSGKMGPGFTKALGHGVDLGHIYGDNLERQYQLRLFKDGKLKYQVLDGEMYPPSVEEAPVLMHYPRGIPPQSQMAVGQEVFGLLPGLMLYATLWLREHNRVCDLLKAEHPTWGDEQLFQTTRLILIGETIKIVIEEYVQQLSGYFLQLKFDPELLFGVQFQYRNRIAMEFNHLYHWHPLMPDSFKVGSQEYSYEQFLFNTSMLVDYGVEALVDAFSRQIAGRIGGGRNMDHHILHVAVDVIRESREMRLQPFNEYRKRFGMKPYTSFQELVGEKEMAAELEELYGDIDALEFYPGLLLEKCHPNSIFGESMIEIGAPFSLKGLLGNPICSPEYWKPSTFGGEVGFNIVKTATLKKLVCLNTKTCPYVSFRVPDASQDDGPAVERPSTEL

| Structure (SMILES) | IC50 [1] [nM] | IC50 [2] [nM] | IC50 [3] [nM] | IC50 [4] [nM] | IC50 [5] [nM] | also measured |
| --- | --- | --- | --- | --- | --- | --- |
| CC(C)(C)c1cc(/C=C2\SC(NO)=NC2=O)cc(C(C)(C)C)c1O | 1500 | 170 | 9200 | 52000 | – | – |
| CONC1=NC(=O)/C(=C/c2cc(C(C)(C)C)c(O)c(C(C)(C)C)c2)O1 | – | 790 | – | 7300 | > 20000 | – |
| CSC1=NC(=O)/C(=C/c2cc(C(C)(C)C)c(O)c(C(C)(C)C)c2)O1 | – | 540 | 6400 | 1600 | – | IC50 [6]: Not Active |
| CC(C)(C)c1cc(/C=C2\SC(=O)NC2=O)cc(C(C)(C)C)c1O | 4700 | 60 | – | 42000 | 9300 | – |
| COc1ccc2c(c1)c(CC(=O)O)c(C)n2C(=O)c1ccc(Cl)cc1 [INDOMETHACIN] | – | – | – | – | – | Inhibition (Rattus norvegicus [7]): 96.5%; ED40 (Mus musculus): 0.6 mg/kg; Lesion frequency (Rattus norvegicus [8]): 75%; ED40 (Rattus norvegicus [9]): 1.6 mg/kg; Gastric damage (Rattus norvegicus [10]): 0.18% |
| CS(=O)(=O)Nc1ccc([N+](=O)[O-])cc1OC1CCCCC1 [NS-398] | – | – | – | – | – | Inhibition (Rattus norvegicus [7]): 30.7%; ED40 (Mus musculus): 7.4 mg/kg; Lesion frequency (Rattus norvegicus [8]): 0%; ED40 (Rattus norvegicus [9]): 0.61 mg/kg; Gastric damage (Rattus norvegicus [10]): 0% |
| C=CCONC1=NC(=O)/C(=C/c2cc(C(C)(C)C)c(O)c(C(C)(C)C)c2)O1 | 26000 | 1900 | – | 4000 | > 20000 | – |
| C/C(=C1/SC(N=C(N)N)=NC1=O)c1cc(C(C)(C)C)c(O)c(C(C)(C)C)c1 | 12000 | 180 | – | 460 | 590 | – |
| CC(C)(C)c1cc(/C=C2\SC(N=C(N)N)=NC2=O)cc(C(C)(C)C)c1O | 21000 | 430 | 250 | 6.1 | – | – |
| CONC1=NC(=O)/C(=C/c2cc(C(C)(C)C)c(O)c(C(C)(C)C)c2)S1 [listing 1 of 2 here] | 1700 | 170 | – | – | – | IC50 [11]: > 20000 nM |
| CC(C)c1cc(/C=C2\SC(N=C(N)N)=NC2=O)cc(C(C)C)c1O | 1800 | 190 | 2700 | 220 | – | – |
| C=CCONC1=NC(=O)/C(=C/c2cc(C(C)(C)C)c(O)c(C(C)(C)C)c2)S1 | 2700 | 1600 | – | – | – | inhibition [12]: < 20%; IC50 [11]: > 20000 nM |
| CC(C)(C)c1cc(C=C2SC(=N)NC2=O)cc(C(C)(C)C)c1O [DARBUFELONE] | – | 69 | 600 | – | – | inhibition [13]: 41%; inhibition [14]: < 20% |
| CC(C)(C)c1cc(/C=C2\NC(=S)NC2=O)cc(C(C)(C)C)c1O | 260 | 83 | – | 1300 | 990 | – |
| CON(C)C1=NC(=O)/C(=C/c2cc(C(C)(C)C)c(O)c(C(C)(C)C)c2)S1 | 18000 | 1600 | 5800 | 51000 | – | Inhibition (Rattus norvegicus [7]): 52.2%; ED40 (Mus musculus): 0.06 mg/kg; Lesion frequency (Rattus norvegicus [8]): 25%; ED40 (Rattus norvegicus [9]): 8.1 mg/kg; Damaged area (Rattus norvegicus [10]): 0.04% |
| CSC1=NC(=O)/C(=C/c2cc(C(C)(C)C)c(O)c(C(C)(C)C)c2)S1 | 1800 | 1600 | 14400 | 63000 | – | – |
| CC(C)(C)c1cc(/C=C2\SC(NC#N)=NC2=O)cc(C(C)(C)C)c1O | 55000 | 230 | > 20000 | – | – | inhibition [15]: < 20% |
| CC(C)(C)c1cc(/C=C2\SC(=S)NC2=O)cc(C(C)(C)C)c1O | 1500 | 390 | – | 24000 | > 20000 | – |
| CS(=O)(=O)c1ccc(-n2nc(C(F)(F)F)cc2-c2ccc(F)cc2)cc1 [SC-58125] | – | – | – | – | – | Inhibition (Rattus norvegicus [7]): -1.58%; ED40 (Mus musculus): 0.3 mg/kg; Lesion frequency (Rattus norvegicus [8]): 0%; ED40 (Rattus norvegicus [9]): > 30 mg/kg; Gastric damage (Rattus norvegicus [10]): 0%; inhibition [16]: < 20% |
| CC(C)(C)c1cc(/C=C2\OC(=O)NC2=O)cc(C(C)(C)C)c1O | 34000 | 71 | – | 95 | 1200 | – |
| CONC1=NC(=O)/C(=C/c2cc(C(C)C)c(O)c(C(C)C)c2)S1 | 570 | > 20000 | > 20000 | > 20000 | – | – |
| CC(C)(C)c1cc(/C=C2\OC(N=C(N)N)=NC2=O)cc(C(C)(C)C)c1O | 5100 | 440 | – | 1200 | 4400 | – |
| CN1C(NC(=N)N)=NC(=O)/C1=C/c1cc(C(C)(C)C)c(O)c(C(C)(C)C)c1 | 81000 | 750 | – | 27 | 1500 | – |
| CONC1=NC(=O)/C(=C/c2cc(C(C)(C)C)c(O)c(C(C)(C)C)c2)S1 [listing 2 of 2 here] | – | – | – | – | – | inhibition [12]: < 20% |
| CCONC1=NC(=O)/C(=C/c2cc(C(C)(C)C)c(O)c(C(C)(C)C)c2)O1 | 79000 | 650 | – | 3500 | > 20000 | – |
| CONC1=NC(=O)/C(=C/c2cc(C(C)(C)C)c(O)c(C(C)(C)C)c2)S1.C[N+](C)(C)CC[O-] | – | – | – | – | – | Inhibition (Rattus norvegicus [7]): 32.8%; ED40 (Mus musculus): 0.1 mg/kg; Lesion frequency (Rattus norvegicus [8]): 0%; ED40 (Rattus norvegicus [9]): 15.7 mg/kg; Gastric damage (Rattus norvegicus [10]): 0% |
| CCONC1=NC(=O)/C(=C/c2cc(C(C)(C)C)c(O)c(C(C)(C)C)c2)S1 | 3200 | 270 | – | – | – | inhibition [12]: < 20%; IC50 [11]: > 20000 nM |
